These results are taken from patent US20060100431A1, “Biologically active compounds” (Amura Therapeutics Limited, priority 2002, published 2006).

What is called Ki is a dissociation constant, usually derived from enzyme kinetics or from competition with a known ligand.

Experiment [1] deals with Wild-type cruzipain (Trypanosoma cruzi, UniProt P25779). In words: Trypanosoma cruzi cruzipain peptidase activity assay (Ki). As to conditions: read-out: Ki, inhibitors of cruzain and cruzipains. In kind it is biochemical. Put shortly: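 Native cruzipain from T. cruzi Dm28 epimastigotes, 2.5 nM, in 100 mM sodium phosphate pH 6.75 with 1 mM EDTA and 10 mM L-cysteine, 25 °C, DMSO <1%. Rates taken from continuous fluorogenic substrate read; Ki by regression assuming reversible pure-competitive inhibition.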

Experiment [2] has as its target T1, human cathepsin L (Homo sapiens, UniProt P07711).
T1 construct: purchased CN Biosciences
In words: Cathepsin L peptidase activity assay (Ki). The settings on record: read-out: Ki, inhibitors of cathepsin L. The format is biochemical. The method, then: Unless otherwise stated, all general chemicals and biochemicals were purchased from either the Sigma Chemical Company, Poole, Dorset, U.K or from Fisher Scientific UK, Loughborough, Leicestershire, U.K. Absorbance assays were carried out in flat-bottomed 96-well plates (Spectra; Greiner Bio-One Ltd., Stonehouse, Gloucestershire, U.K.) using a SpectraMax PLUS384 plate reader (Molecular Devices, Crawley, U.K.). Fluorescence high throughput assays were carried out in either 384-well microtitre plates (Corning Costar 3705 plates, Fisher Scientific) or 96-well ‘U’ bottomed Microfluor W1 microtitre plates (Thermo Labsystems, Ashford, Middlesex, U.K.). Fluorescence assays were monitored using a SpectraMax Gemini fluorescence plate reader (Molecular Devices). For substrates employing either a 7-amino-4-methylcoumarin (AMC) or a 7-amino-4-trifluoromethylcoumarin (AFC) fluorophore, assays were monitored at an excitation wavelength of 365 nm and an emission wavelength of 450 nm and the fluorescence plate reader calibrated with AMC. For substrates employing a 3-amino-benzoyl (Abz) fluorophore, assays were monitored at an excitation wavelength of 310 nm and an emission wavelength of 445 nm; the fluorescence plate reader calibrated with 3-amino-benzamide (Fluka). Unless otherwise indicated, all the peptidase substrates were purchased from Bachem UK, St Helens, Merseyside, UK. Substrates utilizing fluorescence resonance energy transfer methodology (i.e. FRET-based substrates) were synthesized at Incenta Limited using published methods (Atherton & Sheppard, Solid Phase Peptide Synthesis, IRL Press, Oxford, U.K, 1989) and employed Abz (2-aminobenzoyl) as the fluorescence donor and 3-nitro-tyrosine [Tyr(NO2)] as the fluorescence quencher (Meldal, M. and Breddam, K., Anal. Biochem, 195, 141-147, 1991). Hydroxyethylpiperazine ethanesulfonate (HEPES), tris-hydroxylmethyl aminomethane (tris) base, bis-tris-propane and all the biological detergents (e.g. CHAPS, zwittergents, etc.) were purchased from CN Biosciences UK, Beeston, Nottinghamshire, U.K. Glycerol was purchased from Amersham Pharmacia Biotech, Little Chalfont, Buckinghamshire, U.K. Stock solutions of substrate or inhibitor were made up to 10 mM in 100% dimethylsulfoxide (DMSO) (Rathburns, Glasgow, U.K.) and diluted as appropriately required. In all cases the DMSO concentration in the assays was maintained at less than 1% (vol./vol.).
Assay protocols were based on literature precedent (Table 4; Barrett, A. J., Rawlings, N. D. and Woessner, J. F., 1998, Handbook of Proteolytic Enzymes, Academic Press, London and references therein) and modified as required to suit local assay protocols. Enzyme was added as required to initiate the reaction and the activity, as judged by the change in fluorescence upon conversion of substrate to product, was monitored over time. All assays were carried out at 25±1° C.
Bovine cathepsin S, human cathepsin L, human cathepsin H and human cathepsin B were obtained from CN Biosciences. Recombinant human cathepsin S, human cathepsin K and human cathepsin X were obtained from Dr. Boris Turk (Josef Stefan Institute, Ljubljana, Slovenia). Unless otherwise stated, all peptidase activity assays were carried out in 10 mM bis-tris-propane (BTP), pH 6.5 containing 1 mM EDTA, 5 mM 2-mercaptoethanol and 1 mM CaCl2. Human cathepsin H activity assays were carried out in 10 mM BTP pH 6.5, 142 mM NaCl2, 1 mM CaCl2, 1 mM EDTA, 1 mM DTT, 0.035 mM Zwittergent 3-16. Human cathepsin K assays were carried out in 100 mM sodium acetate; pH 5.5 containing 20 mM L-cysteine and 1 mM EDTA (Bossard, M. J., et. al., J. Biol. Chem., 21, 12517-12524, 1996). Human cathepsin X assays were carried out in 100 mM sodium acetate; pH 5.5 containing 20 mM L-cysteine; 0.05% (w/v) Brij 35 and 1 mM EDTA (Santamaria, I., et. al., J. Biol. Chem., 273, 16816-16823, 1998; Klemencic, J, et al., Eur. J. Biochem., 267, 5404-5412, 2000). […]

T1 sequence (P07711 114-333): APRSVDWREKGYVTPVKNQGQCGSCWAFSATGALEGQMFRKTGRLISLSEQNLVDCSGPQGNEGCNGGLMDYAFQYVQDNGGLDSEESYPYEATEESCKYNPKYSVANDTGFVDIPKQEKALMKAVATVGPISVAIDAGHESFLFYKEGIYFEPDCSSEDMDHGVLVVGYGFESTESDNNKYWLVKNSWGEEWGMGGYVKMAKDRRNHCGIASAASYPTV
Chain of Wild-type cruzipain (P25779 whole entry): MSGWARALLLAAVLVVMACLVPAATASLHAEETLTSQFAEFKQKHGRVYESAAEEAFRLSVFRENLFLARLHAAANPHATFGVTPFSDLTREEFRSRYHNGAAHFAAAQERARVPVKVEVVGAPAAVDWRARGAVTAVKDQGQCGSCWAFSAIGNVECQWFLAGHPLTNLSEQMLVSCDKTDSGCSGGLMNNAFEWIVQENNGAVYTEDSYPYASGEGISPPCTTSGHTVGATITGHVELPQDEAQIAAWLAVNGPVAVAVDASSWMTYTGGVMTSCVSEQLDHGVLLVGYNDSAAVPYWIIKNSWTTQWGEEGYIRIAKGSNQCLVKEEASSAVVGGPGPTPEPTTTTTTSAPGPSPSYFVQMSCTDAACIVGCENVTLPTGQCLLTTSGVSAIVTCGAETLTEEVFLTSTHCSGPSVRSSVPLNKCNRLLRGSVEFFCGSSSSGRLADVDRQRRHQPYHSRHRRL

As to `CC(C)C[C@H](NC(=O)c1ccc2ccccc2n1)C(=O)N1CC[C@@H]2[C@H]1C(=O)CN2C(=O)c1cccnc1` [Example 18, (3aR,6aS)-Quinoline-2-carboxylic acid {(1S)-3-methyl-1-[6-oxo-4-(pyridine-3-carbonyl)-hexahydro-pyrrolo[3,2-b]pyrrole-1-carbonyl]-butyl}-amide], the Ki in experiment [1] and in experiment [2] was below 5 µM throughout.
Regarding `CC(C)C[C@H](NC(=O)c1ccc(N(C)C)cc1)C(=O)N1CC[C@@H]2[C@H]1C(=O)CN2C(=O)c1ccc(Cl)o1` [Example 244, (3aR,6aS)-N-{(1S)-1-[4-(5-Chloro-furan-2-carbonyl)-6-oxo-hexahydro-pyrrolo[3,2-b]pyrrole-1-carbonyl]-3-methyl-butyl}-4-dimethylamino-benzamide], the Ki in experiment [1] and in experiment [2] was below 5 µM throughout.
As to `O=C(N[C@@H](CC1CCCCC1)C(=O)N1CC[C@@H]2[C@H]1C(=O)CN2C(=O)c1ccc2ccccc2c1)c1ccsc1` [Example 256, (3aR,6aS)-Thiophene-3-carboxylic acid {(1S)-1-cyclohexylmethyl-2-[4-(naphthalene-2-carbonyl)-6-oxo-hexahydro-pyrrolo[3,2-b]pyrrol-1-yl]-2-oxo-ethyl}-amide], the Ki in experiment [1] and in experiment [2] was below 5 µM throughout.
For `Nc1ccc(C(=O)N2CC(=O)[C@@H]3[C@H]2CCN3C(=O)[C@H](CSCc2ccccc2)NC(=O)c2ccsc2)cc1` [Example 268, (3aR,6aS)-Thiophene-3-carboxylic acid {(1R)-2-(4-(4-amino-benzoyl)-6-oxo-hexahydro-pyrrolo[3,2-b]pyrrol-1-yl]-1-benzylsulfanylmethyl-2-oxo-ethyl}-amide], the Ki in experiment [2] is below 5 µM.
The same measure, in the same setting: in the case of `O=C(N[C@@H](CC1CCCCC1)C(=O)N1CC[C@@H]2[C@H]1C(=O)CN2C(=O)c1ccccc1)C(c1ccccc1)c1ccccc1` [Example 270, (3aR,6aS)-N-[(1S)-2-(4-Benzoyl-6-oxo-hexahydro-pyrrolo[3,2-b]pyrrol-1-yl)-1-cyclohexylmethyl-2-oxo-ethyl]-2,2-diphenyl-acetamide] it was below 5 µM.
On the same count and under the same terms, next, `O=C(N[C@@H](CSCc1ccccc1)C(=O)N1CC[C@@H]2[C@H]1C(=O)CN2C(=O)c1ccsc1)c1ccsc1` [Example 272, (3aR,6aS)-Thiophene-3-carboxylic acid {(1R)-1-benzylsulfanylmethyl-2-oxo-2-[6-oxo-4-(thiophene-3-carbonyl)-hexahydro-pyrrolo[3,2-b]pyrrol-1-yl]-ethyl}-amide]: below 5 µM; `O=C1CN(C(=O)c2ccccc2)[C@@H]2CCN(C(=O)[C@H](CC3CCCCC3)NC(=O)N3CCOCC3)[C@H]12` [Example 280, (3aR,6aS)-Morpholine-4-carboxylic acid [(1S)-2-(4-benzoyl-6-oxo-hexahydro-pyrrolo[3,2-b]pyrrole-1-yl)-1-cyclohexylmethyl-2-oxo-ethyl]-amide]: below 5 µM.
Consider `O=C(N[C@@H](CSCc1ccccc1)C(=O)N1CC[C@@H]2[C@H]1C(=O)CN2C(=O)c1ccccc1)c1cccs1` [Example 282, (3aR,6aS)-Thiophene-2-carboxylic acid [(1R)-2-(4-benzoyl-6-oxo-hexahydro-pyrrolo[3,2-b]pyrrole-1-yl)-1-benzylsulfanylmethyl-2-oxo-ethyl]-amide], for which the Ki in experiment [2] was below 5 µM.
The same measure, in the same setting: next, `O=C(N[C@@H](CSCc1ccccc1)C(=O)N1CC[C@@H]2[C@H]1C(=O)CN2C(=O)c1ccccc1)c1ccccc1` [Example 285, (3aR,6aS)-N-[(1R)-2-(4-Benzoyl-6-oxo-hexahydro-pyrrolo[3,2-b]pyrrol-1-yl)-1-benzylsulfanylmethyl-2-oxo-ethyl]-benzamide]: below 5 µM.
In the case of `O=C(N[C@@H](CC1CCCCC1)C(=O)N1CC[C@@H]2[C@H]1C(=O)CN2C(=O)c1ccccc1)c1cccs1` [Example 287, (3aR,6aS)-Thiophene-2-carboxylic acid [(1S)-2-(4-benzoyl-6-oxo-hexahydro-pyrrolo[3,2-b]pyrrole-1-yl)-1-cyclohexylmethyl-2-oxo-ethyl]-amide], the inhibition constant Ki in experiment [1] and in experiment [2] was below 5 µM each time.
In the case of `O=C(N[C@@H](CC1CCCCC1)C(=O)N1CC[C@@H]2[C@H]1C(=O)CN2C(=O)c1ccccc1)c1ccoc1` [Example 289, (3aR,6aS)-Furan-3-carboxylic acid [(1S)-2-(4-benzoyl-6-oxo-hexahydro-pyrrolo[3,2-b]pyrrole-1-yl)-1-cyclohexylmethyl-2-oxo-ethyl]-amide], the Ki in experiment [2] is below 5 µM.
Turning to `Cc1ccccc1C(=O)N1CC(=O)[C@@H]2[C@H]1CCN2C(=O)[C@H](CC1CCCCC1)NC(=O)c1ccsc1` [Example 291, (3aR,6aS)-Thiophene-3-carboxylic acid {(1S)-1-cyclohexylmethyl-2-[4-(2-methyl-benzoyl)-6-oxo-hexahydro-pyrrolo[3,2-b]pyrrol-1-yl]-2-oxo-ethyl}-amide], in experiment [2], the Ki was below 5 µM.
The same measure, in the same setting: in the case of `Cc1ccc(C(=O)N2CC(=O)[C@@H]3[C@H]2CCN3C(=O)[C@H](CC2CCCCC2)NC(=O)c2ccsc2)cc1` [Example 293, (3aR,6aS)-Thiophene-3-carboxylic acid {(1S)-1-cyclohexylmethyl-2-[4-(4-methyl-benzoyl)-6-oxo-hexahydro-pyrrolo[3,2-b]pyrrol-1-yl]-2-oxo-ethyl}-amide] it was below 5 µM.
Regarding `CN(C)c1ccc(C(=O)N[C@@H](Cc2ccc(O)cc2)C(=O)N2CC[C@@H]3[C@H]2C(=O)CN3C(=O)c2ccccc2)cc1` [Example 356, (3aR,6aS)-N-[(1S)-2-(4-Benzoyl-6-oxo-hexahydro-pyrrolo[3,2-b]pyrrol-1-yl)-1-(4-hydroxy-benzyl)-2-oxo-ethyl)-4-dimethylamino-benzamide], in experiment [2], the Ki is below 5 µM.
On the same count and under the same terms, next, `CN(C)c1ccc(C(=O)N[C@@H](Cc2ccc(O)cc2)C(=O)N2CC[C@@H]3[C@H]2C(=O)CN3C(=O)c2ccccc2S(C)(=O)=O)cc1` [Example 357, (3aR,6aS)-4-Dimethylamino-N-{(1S)-1-(4-hydroxy-benzyl)-2-[4-(2-methanesulfonyl-benzoyl)-6-oxo-hexahydro-pyrrolo[3,2-b]pyrrole-1-yl]-2-oxo-ethyl}-benzamide]: below 5 µM; `CN(C)c1ccc(C(=O)N[C@@H](Cc2ccc(O)cc2)C(=O)N2CC[C@@H]3[C@H]2C(=O)CN3C(=O)c2cccc(S(C)(=O)=O)c2)cc1` [Example 358, (3aR,6aS)-4-Dimethylamino-N-{(1S)-1-(4-hydroxy-benzyl)-2-[4-(3-methanesulfonyl-benzoyl)-6-oxo-hexahydro-pyrrolo[3,2-b]pyrrol-1-yl]-2-oxo-ethyl}-benzamide]: below 5 µM; `CN(C)c1ccc(C(=O)N[C@@H](Cc2ccc(O)cc2)C(=O)N2CC[C@@H]3[C@H]2C(=O)CN3C(=O)c2cccs2)cc1` [Example 359, (3aR,6aS)-4-Dimethylamino-N-{(1S)-1-(4-hydroxy-benzyl)-2-oxo-2-[6-oxo-4-(thiophene-2-carbonyl)-hexahydro-pyrrolo[3,2-b]pyrrol-1-yl]-ethyl}-benzamide]: below 5 µM.
